According to the CheMixHub drug solubility set:

Experiment: xn = mol fraction of the nth substance listed, in the solute-free solvent

CCCSc1ccc2[nH]c(NC(=O)OC)nc2c1 + CCO + O
solubility (g/100 g solution)
Details	x2 = 0.0416	x2 = 0.0891	x2 = 0.1435	x2 = 0.2068	x2 = 0.2811	x2 = 0.3697	x2 = 0.4771	x2 = 0.61	x2 = 0.7787
288.95 K	0.00065	0.00225	0.0048	0.00531	0.0142	0.031	0.0476	0.0657	0.0669
293.15 K	0.00113	0.00279	0.0063	0.00878	0.0211	0.0396	0.0538	0.0706	0.0729
297.15 K	0.00141	0.0033	0.00736	0.0137	0.025	0.0476	0.0643	0.0856	0.0933
301.25 K	0.00181	0.00417	0.00932	0.0172	0.0324	0.0565	0.0753	0.0966	0.11
305.15 K	0.00257	0.00518	0.0114	0.0207	0.04	0.0682	0.0957	0.124	0.137
309.15 K	0.00328	0.00624	0.0127	0.025	0.048	0.0834	0.118	0.162	0.169
313.05 K	0.00395	0.00729	0.0156	0.0318	0.0594	0.104	0.149	0.204	0.208
317.25 K	0.00594	0.00852	0.0188	0.0386	0.0732	0.12	0.185	0.242	0.25

O=C(NC(C(=O)O)c1ccccc1)OCc1ccccc1 (stereo not drawn) + CCO + O
solubility (g/100 g solution)
Details	x2 = 0.1	x2 = 0.2	x2 = 0.3	x2 = 0.4	x2 = 0.5	x2 = 0.6	x2 = 0.7	x2 = 0.8	x2 = 0.9
283.15 K	0.0534	0.628	1.49	2.83	4.36	6.29	8.19	11.1	11.8
293.15 K	0.0958	0.786	2.21	4.37	6.76	9.75	13.4	17.7	18.1
303.15 K	0.153	1.18	3.44	7.93	12.3	17.6	21.9	26.9	27.3
313.15 K	0.239	1.91	6.85	13.9	22.6	29.6	35.5	39.3	40.2
323.15 K	0.396	3.17	12.7	24	37.5	45.5	49.1	51.8	52.6

FC(F)(F)c1cccnc1Cl + CCOC(C)=O + CCCCO
solubility (g/100 g solution)
Details	263.15 K	268.15 K	273.15 K	278.15 K	283.15 K	288.15 K	293.15 K	298.15 K	303.15 K
x2 = 0.2518	27.4	32.6	37.9	43.8	50.9	57.7	64.8	71.6	77.6
x2 = 0.4023	33.5	38.3	42.5	49.6	54.8	61.4	68	74.3	80.5
x2 = 0.5999	37.2	42.5	47.4	53.5	60.2	66.6	72.6	78.8	84.3
x2 = 0.7998	42.4	47.7	52.6	59	64.3	70.8	76.8	82.4	87.4
